Values of other authors in patent publication US11737471B2, “Products having high efficacy omega-6/omega-3 balanced polyunsaturated fatty acids” (OMEGA FOODS, LLC, priority 2011, dated 2023).

Details: by some estimates

- conversion of ALA to DHA and EPA by the human body: less than 1%
Compound: CC/C=C\C/C=C\C/C=C\CCCCCCCC(=O)O [ALA, alpha-linolenic acid]
